Assay results as given in ChEMBL document CHEMBL1201862, “PubChem BioAssay data set” (2004).
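Five compound concentrations were applied to cells in 96-well plates for 48 hours; endpoints were derived by simple linear interpolation of the resulting dose-response curve. Abbreviation: GI50, concentration required for 50% inhibition of growth.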 Active and inactive are the calls of the source. Cut-off read from the data, not from the text of the source: active = GI50 up to about 1.1 µM and inactive = higher.

How the values were obtained:
Assay in all cases: growth of human tumour cells (NCI), 48 h
CCRF-CEM = tested on: CCRF-CEM
LOX IMVI = tested on: LOX IMVI
SK-MEL-2 = tested on: SK-MEL-2
U-251 = tested on: U-251
NCI-H460 = tested on: NCI-H460
OVCAR-4 = tested on: OVCAR-4
786-0 = tested on: 786-0
HT-29 = tested on: HT-29
SR = tested on: SR
Malme-3M = tested on: Malme-3M
M14 = tested on: M14
NCI-H23 = tested on: NCI-H23
SK-OV-3 = tested on: SK-OV-3
SK-MEL-28 = tested on: SK-MEL-28
OVCAR-8 = tested on: OVCAR-8
TK-10 = tested on: TK-10
HCT-116 = tested on: HCT-116
SF-295 = tested on: SF-295
DU-145 = tested on: DU-145

Oc1cc(-c2ccc3c(c2)OCO3)nc2cc3c(cc12)OCO3
GI50 (CCRF-CEM): 31.7 µM (inactive)
GI50 (LOX IMVI): 57.8 µM (inactive)
GI50 (SK-MEL-2): 31.1 µM (inactive)
GI50 (U-251): 30.5 µM (inactive)
GI50 (NCI-H460): 40.2 µM (inactive)
GI50 (OVCAR-4): > 100 µM (inactive)
GI50 (786-0): 34.9 µM (inactive)
GI50 (HT-29): 37.8 µM (inactive)
GI50 (SR): 6.35 µM (inactive)
GI50 (Malme-3M): 21.2 µM (inactive)
GI50 (M14): 27.9 µM (inactive)
GI50 (NCI-H23): 32.4 µM (inactive)
GI50 (SK-OV-3): 30.9 µM (inactive)
GI50 (SK-MEL-28): 37.4 µM (inactive)
GI50 (OVCAR-8): 25.7 µM (inactive)
GI50 (TK-10): 63.8 µM (inactive)

COc1ccc(C(O)/C(=C/n2ccnc2)c2ccccc2)cc1OC (centres undefined)
GI50 (CCRF-CEM): > 100 µM (inactive)
GI50 (LOX IMVI): > 100 µM (inactive)
GI50 (SK-MEL-2): > 100 µM (inactive)
GI50 (U-251): > 100 µM (inactive)
GI50 (NCI-H460): > 100 µM (inactive)
GI50 (OVCAR-4): > 100 µM (inactive)
GI50 (786-0): > 100 µM (inactive)
GI50 (HT-29): > 100 µM (inactive)
GI50 (SR): > 100 µM (inactive)
GI50 (Malme-3M): > 100 µM (inactive)
GI50 (M14): > 100 µM (inactive)
GI50 (NCI-H23): > 100 µM (inactive)
GI50 (HCT-116): > 100 µM (inactive)
GI50 (SK-OV-3): > 100 µM (inactive)
GI50 (SK-MEL-28): > 100 µM (inactive)
GI50 (OVCAR-8): > 100 µM (inactive)
GI50 (SF-295): > 100 µM (inactive)
GI50 (TK-10): > 100 µM (inactive)

O=C(O)c1ccn(-c2cccc(-n3ccc(C(=O)O)n3)n2)n1
GI50 (CCRF-CEM): > 100 µM (inactive)
GI50 (LOX IMVI): > 100 µM (inactive)
GI50 (SK-MEL-2): > 100 µM (inactive)
GI50 (U-251): > 100 µM (inactive)
GI50 (NCI-H460): > 100 µM (inactive)
GI50 (OVCAR-4): > 100 µM (inactive)
GI50 (786-0): > 100 µM (inactive)
GI50 (DU-145): > 100 µM (inactive)
GI50 (HT-29): > 100 µM (inactive)
GI50 (SR): > 100 µM (inactive)
GI50 (Malme-3M): > 100 µM (inactive)
GI50 (M14): > 100 µM (inactive)
GI50 (NCI-H23): > 100 µM (inactive)
GI50 (HCT-116): > 100 µM (inactive)
GI50 (SK-OV-3): > 100 µM (inactive)
GI50 (SK-MEL-28): > 100 µM (inactive)
GI50 (OVCAR-8): > 100 µM (inactive)
GI50 (SF-295): > 100 µM (inactive)
GI50 (TK-10): > 100 µM (inactive)

CCC1(O)C(=O)OCc2c1cc1n(c2=O)Cc2c-1nc1ccccc1c2OC (centres undefined)
GI50 (CCRF-CEM): < 0.01 µM (active)
GI50 (LOX IMVI): < 0.01 µM (active)
GI50 (SK-MEL-2): 2.16 µM (inactive)
GI50 (U-251): < 0.01 µM (active)
GI50 (NCI-H460): < 0.01 µM (active)
GI50 (OVCAR-4): 0.187 µM (active)
GI50 (786-0): < 0.01 µM (active)
GI50 (HT-29): 0.061 µM (active)
GI50 (SR): < 0.01 µM (active)
GI50 (Malme-3M): 0.15 µM (active)
GI50 (M14): < 0.0176 µM (active)
GI50 (NCI-H23): < 0.0121 µM (active)
GI50 (HCT-116): 0.0453 µM (active)
GI50 (SK-OV-3): 0.0386 µM (active)
GI50 (SK-MEL-28): 0.32 µM (active)
GI50 (OVCAR-8): 0.0194 µM (active)
GI50 (SF-295): < 0.01 µM (active)
GI50 (TK-10): 3.52 µM (inactive)

CCN(CC)CC(C(=O)Nc1c(C)cccc1C)/C(C)=N\NC(=O)c1ccncc1 (centres undefined)
GI50 (LOX IMVI): > 100 µM (inactive)
GI50 (SK-MEL-2): > 100 µM (inactive)
GI50 (U-251): > 100 µM (inactive)
GI50 (NCI-H460): > 100 µM (inactive)
GI50 (OVCAR-4): > 100 µM (inactive)
GI50 (786-0): > 100 µM (inactive)
GI50 (HT-29): > 100 µM (inactive)
GI50 (SR): > 100 µM (inactive)
GI50 (Malme-3M): > 100 µM (inactive)
GI50 (M14): > 100 µM (inactive)
GI50 (NCI-H23): > 100 µM (inactive)
GI50 (HCT-116): > 100 µM (inactive)
GI50 (SK-OV-3): > 100 µM (inactive)
GI50 (SK-MEL-28): > 100 µM (inactive)
GI50 (OVCAR-8): > 100 µM (inactive)
GI50 (SF-295): > 100 µM (inactive)
GI50 (TK-10): > 100 µM (inactive)

Cc1ccc(NC(=O)CC/C(CC(=O)C(C)(C)C)=N\NC(=O)C[n+]2ccccc2)cc1C
GI50 (CCRF-CEM): 45.3 µM (inactive)
GI50 (LOX IMVI): 99.8 µM (inactive)
GI50 (SK-MEL-2): > 100 µM (inactive)
GI50 (U-251): 87.9 µM (inactive)
GI50 (NCI-H460): 51.9 µM (inactive)
GI50 (OVCAR-4): > 100 µM (inactive)
GI50 (786-0): > 100 µM (inactive)
GI50 (HT-29): 91.2 µM (inactive)
GI50 (SR): 78.5 µM (inactive)
GI50 (Malme-3M): > 100 µM (inactive)
GI50 (M14): > 100 µM (inactive)
GI50 (NCI-H23): > 100 µM (inactive)
GI50 (HCT-116): 74.5 µM (inactive)
GI50 (SK-OV-3): > 100 µM (inactive)
GI50 (SK-MEL-28): > 100 µM (inactive)
GI50 (OVCAR-8): > 100 µM (inactive)
GI50 (SF-295): > 100 µM (inactive)
GI50 (TK-10): > 100 µM (inactive)

COP(=O)(OC)C(NC(=O)C(F)(F)F)(c1ccccc1)C(F)(F)F (centres undefined)
GI50 (CCRF-CEM): > 100 µM (inactive)
GI50 (LOX IMVI): > 100 µM (inactive)
GI50 (SK-MEL-2): > 100 µM (inactive)
GI50 (U-251): > 100 µM (inactive)
GI50 (NCI-H460): > 100 µM (inactive)
GI50 (OVCAR-4): > 100 µM (inactive)
GI50 (786-0): > 100 µM (inactive)
GI50 (HT-29): > 100 µM (inactive)
GI50 (SR): > 100 µM (inactive)
GI50 (Malme-3M): > 100 µM (inactive)
GI50 (M14): > 100 µM (inactive)
GI50 (NCI-H23): > 100 µM (inactive)
GI50 (HCT-116): > 100 µM (inactive)
GI50 (SK-OV-3): > 100 µM (inactive)
GI50 (SK-MEL-28): > 100 µM (inactive)
GI50 (OVCAR-8): > 100 µM (inactive)
GI50 (SF-295): > 100 µM (inactive)
GI50 (TK-10): > 100 µM (inactive)

O=[N+]([O-])c1cnn(C2=CNc3ccccc3N=C2)c1
GI50 (CCRF-CEM): > 100 µM (inactive)
GI50 (SK-MEL-2): > 100 µM (inactive)
GI50 (U-251): > 100 µM (inactive)
GI50 (NCI-H460): > 100 µM (inactive)
GI50 (786-0): > 100 µM (inactive)
GI50 (HT-29): > 100 µM (inactive)
GI50 (SR): > 100 µM (inactive)
GI50 (Malme-3M): > 100 µM (inactive)
GI50 (NCI-H23): > 100 µM (inactive)
GI50 (HCT-116): > 100 µM (inactive)
GI50 (SK-OV-3): > 100 µM (inactive)
GI50 (SK-MEL-28): > 100 µM (inactive)
GI50 (OVCAR-8): > 100 µM (inactive)
GI50 (SF-295): > 100 µM (inactive)
GI50 (TK-10): > 100 µM (inactive)
